Laboratory results reported in paper PMC8263017, “Cryo-EM Determination of Eravacycline-Bound Structures of the Ribosome and the Multidrug Efflux Pump AdeJ of Acinetobacter baumannii” (mBio, 2021).

Tests used:
[1] = biological target: T1, AdeJ multidrug efflux pump (Acinetobacter baumannii, UniProt Q2FD94); assay: single-particle cryo-EM structure ([…] A); details: 10 uM AdeJ-nanodisc with 20 uM eravacycline (dihydrochloride), 1 h; distal drug-binding site of the binding-state protomer, one molecule per trimer; no Mg2+ seen at the site
T1 construct: full-length, 1,058 residues (1,046 built per protomer); N-terminal 6xHis tag (pET15b); expressed in E. coli BL21(DE3) delta-acrB; DDM-purified, reconstituted in MSP 1E3D1 lipidic nanodiscs; homotrimer

[2] = biological target: Acinetobacter drug efflux (Ade)J multidrug efflux pump of A. baumannii Ab0057 (Acinetobacter baumannii Ab0057) (UniProt Q2FD94); assay: cryo-EM structure; single-particle cryo-EM of 10 μM AdeJ in lipidic nanodiscs, incubated with 20 μM eravacycline for 1 h; two classes in one sample (apo-AdeJ trimer and AdeJ-Era trimer); 20 mM Tris-HCl pH 7.5, 100 mM NaCl

Row | Molecule | single-particle cryo-EM structure (2.86 A) [1] | stoichiometry N [2]
1 | CN(C)[C@@H]1C(=O)C(C(N)=O)=C(O)[C@@]2(O)C(=O)C3=C(O)c4c(O)c(NC(=O)CN5CCCC5)cc(F)c4C[C@H]3C[C@@H]12 [eravacycline] | large density corresponds to the bound Era drug located at the distal multidrug-binding site | –
2 | Acinetobacter drug efflux (Ade)J multidrug efflux pump of A. baumannii Ab0057 (from UniProt Q2FD94 1-1058) (natural protein) | – | 3
